# From patent US7855205B2, “Pyrimidinyl substituted fused-pyrrolyl compounds useful in treating kinase disorders” (Janssen Pharmaceutica NV, priority 2004, dated 2010)
# Legend:
# [1] = test system: HCT-116 colon carcinoma; assay: Inhibition of cell proliferation (14C-thymidine incorporation), HCT-116; type: cell-based; conditions: Homo sapiens, HCT-116, HCT116
# Experimental: (§1) The ability of a test compound to inhibit the proliferation of cell growth was determined by measuring incorporation of ^14C-labelled thymidine into newly synthesized DNA within the cells. This method was used on cell lines derived from carcinomas originating from several tissues such as HeLa cervical adenocarcinoma (American Type Culture Collection (ATCC), Virginia, Cat. #CCL-2), A375 malignant melanoma (ATCC CRL-1619), HCT-116 colon carcinoma (CCL-247). In this way the effect of a compound on cell growth of cells with many different phenotypes can be determined. Cells were trypsinized and counted and 3000-8000 cells were added to each well of a 96-well CytoStar tissue culture treated scintillating microplate (Amersham #RPNQ0160) in complete medium in a volume of 100 μL. Cells were incubated for 24 hours in complete medium at 37° C. in an atmosphere containing 5% CO2.
# (§2) Next, 1 μL of test compound in 100% DMSO was added to the wells of the plate. DMSO only was added to control wells. Cells were incubated for 24 more hours in complete medium at 37° C. in an atmosphere containing 5% CO2. Methyl ^14C-thymidine 56 mCi/mmol (NEN #NEC568 or Amersham #CFA532) was diluted in complete medium and 0.2 uCi/well was added to each well of the CytoStar plate in a volume of 20 μl. The plate was incubated for 24 hours at 37° C. plus 5% CO2 in drug plus ^14C-thymidine. The contents of the plate discarded into a ^14C radioactive waste container by inverting the plate and the plate was washed twice with 200 μL PBS.
# (§3) 200 μL of PBS is added to each well. The top of the plate was sealed with a transparent plate sealer and a white plate backing sealer (Packard #6005199) was applied to the bottom of the plate. The degree of methyl ^14C-thymidine incorporation was quantified on a Packard Top Count.
# [2] = target: T1, VEGF-R2 (Rattus norvegicus, UniProt O08775); assay: VEGF-R2 Screening Assay; type: biochemical; conditions: 33P-γ-ATP incorporation, 10 μM ATP
# T1 construct: polyhistidine (N)
# T1 sequence (O08775 786-1343): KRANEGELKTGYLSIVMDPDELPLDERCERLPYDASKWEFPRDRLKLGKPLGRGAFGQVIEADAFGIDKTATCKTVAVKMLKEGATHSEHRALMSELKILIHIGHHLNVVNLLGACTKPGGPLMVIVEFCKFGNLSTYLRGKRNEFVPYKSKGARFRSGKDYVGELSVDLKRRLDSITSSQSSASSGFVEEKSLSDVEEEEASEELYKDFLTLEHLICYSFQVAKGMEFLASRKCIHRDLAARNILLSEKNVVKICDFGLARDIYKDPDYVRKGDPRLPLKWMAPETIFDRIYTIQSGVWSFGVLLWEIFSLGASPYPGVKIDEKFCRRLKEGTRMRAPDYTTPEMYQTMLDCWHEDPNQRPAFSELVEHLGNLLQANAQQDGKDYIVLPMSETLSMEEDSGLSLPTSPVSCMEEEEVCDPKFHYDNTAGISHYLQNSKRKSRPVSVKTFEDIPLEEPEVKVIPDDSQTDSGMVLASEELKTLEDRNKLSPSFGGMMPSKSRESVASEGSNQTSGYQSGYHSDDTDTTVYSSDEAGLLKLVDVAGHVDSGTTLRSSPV
# Experimental: Then 1 μL of test compound stock in 100% DMSO was added to the wells resulting in a final concentration of 1% DMSO in the reaction with a 100 μL final reaction volume. The CDK1:Cyclin-B protein was then diluted in 50 mM Tris-HCl pH=8.0, 0.1% BSA at a concentration of 1 ng per μL and 30 μL (30 ng enzyme per test well) was added to each well to initiate the reaction. The reaction was incubated for one hour at 30° C. At the end of the 1 h incubation, the reaction was terminated by aspirating the mixture from the plate and washing the wells twice with PBS containing 100 mM EDTA. The histone-H1 biotinylated peptide substrate became immobilized on the Flashplate™ and the incorporation of ^33P-γ-ATP was measured by reading the plate on a scintillation counter. Inhibition of the enzymatic activity of CDK1 was measured by observing a reduced amount of ^33P-γ-ATP incorporated into the immobilized peptide. The VEGF-R kinase assay was carried out using the CDK kinase assay procedure except that the enzyme was replaced with the VEGF-R2 fusion protein containing a polyhistidine tag at the N-terminus followed by amino acids 786-1343 of the rat VEGF-R2 kinase domain (GenBank Accession #U93306).
# [3] = target: T2, CDK1:Cyclin-B (Homo sapiens, UniProt P06493); assay: CDK1 Screening Assay; type: biochemical; conditions: 33P-γ-ATP incorporation, 10 μM ATP
# T2 construct: purchased New England Biolabs, Beverly, Mass; 6020; host or cells: insect cells
# T2 sequence (P06493 whole entry): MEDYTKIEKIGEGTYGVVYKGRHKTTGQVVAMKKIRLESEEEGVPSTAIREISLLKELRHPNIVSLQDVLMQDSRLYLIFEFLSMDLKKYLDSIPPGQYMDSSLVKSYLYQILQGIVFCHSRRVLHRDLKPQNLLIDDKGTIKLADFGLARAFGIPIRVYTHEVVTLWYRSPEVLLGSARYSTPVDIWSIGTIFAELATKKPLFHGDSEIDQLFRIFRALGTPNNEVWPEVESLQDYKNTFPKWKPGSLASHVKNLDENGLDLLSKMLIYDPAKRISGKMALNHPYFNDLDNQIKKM
# T2 sequence (P14635 whole entry partner): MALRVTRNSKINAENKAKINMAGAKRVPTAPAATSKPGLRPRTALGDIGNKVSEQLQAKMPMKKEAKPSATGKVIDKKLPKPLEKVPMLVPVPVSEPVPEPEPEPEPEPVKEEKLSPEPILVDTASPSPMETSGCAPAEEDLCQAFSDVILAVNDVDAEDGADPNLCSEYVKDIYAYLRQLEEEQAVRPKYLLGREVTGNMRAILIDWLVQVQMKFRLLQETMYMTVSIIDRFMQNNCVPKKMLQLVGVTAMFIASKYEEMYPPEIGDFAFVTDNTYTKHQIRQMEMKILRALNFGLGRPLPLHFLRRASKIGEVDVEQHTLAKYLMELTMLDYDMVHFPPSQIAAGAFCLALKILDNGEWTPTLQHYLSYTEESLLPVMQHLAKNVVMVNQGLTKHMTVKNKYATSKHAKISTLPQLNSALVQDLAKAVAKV
# Experimental: (§4) A kinase reaction mixture was prepared containing 50 mM Tris-HCl pH=8, 10 mM MgCl2, 0.1 mM […], 1 mM DTT, 10 μM ATP, 0.025 μM biotinylated histone-HI peptide substrate and […] per well ^33P-γ-ATP (2000-3000 Ci/mmol). 70 μL of the kinase reaction mixture was dispensed into the well of a streptavidin coated FlashPlate™ (Cat. # SMP103, NEN, Boston, Mass.). Then 1 μL of test compound stock in 100% DMSO was added to the wells resulting in a final concentration of 1% DMSO in the reaction with a 100 μL final reaction volume.
# (§5) The CDK1:Cyclin-B protein was then diluted in 50 mM Tris-HCl pH=8.0, 0.1% BSA at a concentration of 1 ng per μL and 30 μL (30 ng enzyme per test well) was added to each well to initiate the reaction. The reaction was incubated for one hour at 30° C. At the end of the 1 h incubation, the reaction was terminated by aspirating the mixture from the plate and washing the wells twice with PBS containing 100 mM EDTA. The histone-H1 biotinylated peptide substrate became immobilized on the Flashplate™ and the incorporation of ^33P-γ-ATP was measured by reading the plate on a scintillation counter. Inhibition of the enzymatic activity of CDK1 was measured by observing a reduced amount of ^33P-γ-ATP incorporated into the immobilized peptide.
# The CDK1 used was isolated from insect cells expressing both the human CDK1 catalytic subunit and its positive regulatory subunit cyclin B (New England Biolabs, Beverly, Mass., Cat. #6020).
# (§6) • VEGF-R2, HER2 and (Biotin)[…]-Amide • RET kinases • CDK1 (Biotin)[…]-Amide • Aurora-A kinase Biotin-[…]-Amide
# [4] = test system: A375 malignant melanoma; assay: Inhibition of cell proliferation (14C-thymidine incorporation), A375; type: cell-based, human; conditions: Homo sapiens, A-375
# Experimental: as §1, §2, §3
# [5] = target: T3, Aurora-A (Mus musculus, UniProt P97477); assay: Aurora-A Screening Assay; type: biochemical, murine; conditions: 33P-γ-ATP incorporation, 10 μM ATP
# T3 construct: made in house; host or cells: sf9 insect cells
# T3 sequence (P97477 1-395): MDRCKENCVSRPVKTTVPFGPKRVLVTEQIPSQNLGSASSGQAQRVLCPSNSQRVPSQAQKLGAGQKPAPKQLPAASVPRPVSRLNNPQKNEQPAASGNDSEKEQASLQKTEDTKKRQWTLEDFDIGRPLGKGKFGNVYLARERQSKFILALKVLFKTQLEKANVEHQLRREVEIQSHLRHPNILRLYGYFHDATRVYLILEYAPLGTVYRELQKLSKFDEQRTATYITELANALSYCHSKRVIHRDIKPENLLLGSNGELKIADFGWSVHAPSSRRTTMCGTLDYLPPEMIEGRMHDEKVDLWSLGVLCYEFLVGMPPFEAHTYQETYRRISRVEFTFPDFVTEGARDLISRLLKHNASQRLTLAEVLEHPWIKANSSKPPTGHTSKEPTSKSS
# Experimental: as §4, §5
# The Aurora-A kinase assay was carried out using the CDK kinase assay procedure except that the enzyme was replaced with the full length protein encoding the murine Aurora-A (Accession# GB BC014711) expressed and purified from sf9 insect cells.
# as §6
# [6] = test system: HeLa cervical adenocarcinoma; assay: Inhibition of cell proliferation (14C-thymidine incorporation), HeLa; type: cell-based; conditions: Homo sapiens;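 note: HeLa cells in 96-well scintillating plates, compound for 24 h then 24 h more with 14C-thymidine, counting label built into new DNA against DMSO-only control wells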
IC50 [1],IC50 [2],IC50 [3],IC50 [4],IC50 [5],IC50 [6],SMILES
0.41 µM,10 µM,0.151 µM,0.604 µM,0.636 µM,0.368 µM,"c1cnc2[nH]cc(-c3ccnc(NCC4CCCCC4)n3)c2c1 [Cpd 16, Cyclohexylmethyl-[4-(1H-pyrrolo[2,3-b]pyridin-3-yl)-pyrimidin-2-yl]-amine]"
0.0129 µM,1 µM,0.0308 µM,0.0317 µM,0.32 µM,0.023 µM,"CC(=O)n1cc(-c2ccnc(NC3CCCCC3)n2)c2cccnc21 [Cpd 68, Cyclohexyl-[4-(1-acetyl-1H-pyrrolo[2,3-b]pyridin-3-yl)pyrimidin-2-yl]-amine]"
0.105 µM,1 µM,0.046 µM,0.11 µM,0.1 µM,0.0992 µM,"Fc1ccccc1Nc1nccc(-c2c[nH]c3ncccc23)n1 [Cpd 31, (2-Fluorophenyl)-[4-(1H-pyrrolo[2,3-b]pyridin-3-yl)-pyrimidin-2-yl]-amine]"
0.00313 µM,6.71 µM,0.00426 µM,0.00225 µM,1.01 µM,0.00374 µM,"CNCC[C@H]1CC[C@H](Nc2nccc(-c3c[nH]c4ncccc34)n2)CC1 [Cpd 78, trans-[4-(2-Methylaminoethyl)-cyclohexyl]-[4-(1H-pyrrolo[2,3-b]pyridin-3-yl)-pyrimidin-2-yl]-amine]"
0.078 µM,2.23 µM,0.088 µM,0.093 µM,0.885 µM,0.059 µM,"c1cnc2[nH]cc(-c3ccnc(NC4CCCC4)n3)c2c1 [Cpd 14, Cyclopentyl-[4-(1H-pyrrolo[2,3-b]pyridin-3-yl)-pyrimidin-2-yl]-amine]"
0.00639 µM,1 µM,0.002 µM,0.0045 µM,0.357 µM,0.0072 µM,"COc1ccc(Nc2nccc(-c3c[nH]c4ncccc34)n2)c(C)c1 [Cpd 27, (4-Methoxy-2-methylphenyl)-[4-(1H-pyrrolo[2,3-b]pyridin-3-yl)-pyrimidin-2-yl]-amine]"
0.00137 µM,0.618 µM,0.004 µM,0.0157 µM,0.238 µM,0.0114 µM,"Cc1cccc(Nc2nccc(-c3c[nH]c4ncccc34)n2)c1C [Cpd 34, (2,3-Dimethylphenyl)-[4-(1H-pyrrolo[2,3-b]pyridin-3-yl)-pyrimidin-2-yl]-amine]"
0.242 µM,1.66 µM,0.168 µM,0.862 µM,0.735 µM,0.384 µM,"Oc1ccc(Nc2nccc(-c3c[nH]c4ncccc34)n2)cc1 [Cpd 39, (4-Hydroxyphenyl)-[4-(1H-pyrrolo[2,3-b]pyridin-3-yl)-pyrimidin-2-yl]-amine]"

# More lines, now with the values behind:
SMILES,IC50 [1],IC50 [2],IC50 [3],IC50 [4],IC50 [5],IC50 [6]
"Cc1cc(CCN2CCN(C)CC2)ccc1Nc1nccc(-c2c[nH]c3ncccc23)n1 [Cpd 51, {4-[2-(4-Methylpiperizin-1-yl)ethyl]-2-methylphenyl}-[4(1H-pyrrolo[2,3-b]pyridin-3-yl)-pyrimidin-2-yl]-amine]",0.00361 µM,1.25 µM,0.0026 µM,0.00352 µM,0.895 µM,0.00466 µM
"c1cnc2[nH]cc(-c3ccnc(NC4CCOCC4)n3)c2c1 [Cpd 60, (Tetrahydropyran-4-yl)-[4-(1H-pyrrolo[2,3-b]pyridin-3-yl)-pyrimidin-2-yl]-amine]",0.0175 µM,2.46 µM,0.0373 µM,0.0417 µM,1.51 µM,0.0411 µM
"CC(=O)N1CCC(Nc2nccc(-c3c[nH]c4ncccc34)n2)CC1 [Cpd 64, 1-{4-[4-(1H-pyrrolo[2,3-b]pyridin-3-yl)pyrimidin-2-ylamino]piperidin-1-yl}ethanone]",0.0689 µM,10 µM,0.0498 µM,0.155 µM,1.68 µM,0.136 µM
"c1cnc2[nH]cc(-c3ccnc(NC4CCCCCC4)n3)c2c1 [Cpd 15, Cycloheptyl-[4-(1H-pyrrolo[2,3-b]pyridin-3-yl)-pyrimidin-2-yl]-amine]",0.00756 µM,2.11 µM,0.012 µM,0.00467 µM,0.166 µM,0.0082 µM
"CN1CCC(Nc2nccc(-c3c[nH]c4ncccc34)n2)CC1 [Cpd 61, (1-Methylpiperidin-4-yl)-[4-(1H-pyrrolo[2,3-b]pyridin-3-yl)-pyrimidin-2-yl]-amine]",0.0153 µM,10 µM,0.129 µM,0.0214 µM,2.25 µM,0.026 µM
"FC(F)(F)c1ccccc1Nc1nccc(-c2c[nH]c3ncccc23)n1 [Cpd 29, (2-trifluoromethylphenyl)-[4-(1H-pyrrolo[2,3-b]pyridin-3-yl)-pyrimidin-2-yl]-amine]",0.381 µM,1.97 µM,0.056 µM,0.403 µM,1 µM,0.392 µM
"NC1CCN(c2nccc(-c3c[nH]c4ncccc34)n2)CC1 [Cpd 62, 1-[4-(1H-pyrrolo[2,3-b]pyridin-3-yl)-pyrimidin-2-yl]-piperidin-4-ylamine]",0.525 µM,2.67 µM,0.5 µM,0.622 µM,0.762 µM,1.08 µM
"Brc1ccccc1Nc1nccc(-c2c[nH]c3ncccc23)n1 [Cpd 28, (2-Bromophenyl)-[4-(1H-pyrrolo[2,3-b]pyridin-3-yl)-pyrimidin-2-yl]-amine]",0.118 µM,1 µM,0.0127 µM,0.0676 µM,0.175 µM,0.0952 µM
